Experimental data: ChEMBL document CHEMBL1135059, “Structure-activity relationships of novel anti-malarial agents. Part 3: N-(4-acylamino-3-benzoylphenyl)-4-propoxycinnamic acid amides” (Bioorg Med Chem Lett, 2002)

Experiments:
Plasmodium falciparum [1] = assay: microbe, parasite or virus in culture
Description: Antimalarial activity against Plasmodium falciparum Dd2 in erythrocytes

Plasmodium falciparum [2] = assay: microbe, parasite or virus in culture; remark: listed apart in the source
Description: Antimalarial activity against Plasmodium falciparum 3D7 in erythrocytes

Row | Compound | IC50 (Plasmodium falciparum [1]) | IC50 (Plasmodium falciparum [2])
1 | CCCOc1ccc(/C=C/C(=O)Nc2ccc(NC(=O)Cc3ccccc3C)c(C(=O)c3ccccc3)c2)cc1 | 2400 nM | 1400 nM
2 | CCCOc1ccc(/C=C/C(=O)Nc2ccc(NC(=O)Cc3ccc(Br)cc3)c(C(=O)c3ccccc3)c2)cc1 | 310 nM | 140 nM
3 | CCCOc1ccc(/C=C/C(=O)Nc2ccc(NC(=O)Cc3ccc(Cl)cc3)c(C(=O)c3ccccc3)c2)cc1 | 350 nM | 270 nM
4 | CCCOc1ccc(/C=C/C(=O)Nc2ccc(NC(=O)Cc3ccc(OC)cc3)c(C(=O)c3ccccc3)c2)cc1 | 1300 nM | 1200 nM
5 | CCCOc1ccc(/C=C/C(=O)Nc2ccc(NC(=O)Cc3ccc(C)cc3)c(C(=O)c3ccccc3)c2)cc1 | 340 nM | 250 nM
6 | CC1(C)N=C(N)N=C(N)N1c1ccc(Cl)cc1 [CYCLOGUANIL] | – | 7.5 nM
7 | CCc1nc(N)nc(N)c1-c1ccc(Cl)cc1 [PYRIMETHAMINE] | – | 3 nM
8 | C=C[C@H]1CN2CC[C@H]1C[C@H]2[C@H](O)c1ccnc2ccc(OC)cc12 [QUININE] | – | 96 nM

More lines, in order of falling IC50 (Plasmodium falciparum [1]), values ahead:

Row | IC50 (Plasmodium falciparum [1]) | IC50 (Plasmodium falciparum [2]) | Compound
9 | 24000 nM | 19000 nM | CCCOc1ccc(/C=C/C(=O)Nc2ccc(NC(=O)Cc3ccc(-c4ccccc4)cc3)c(C(=O)c3ccccc3)c2)cc1
10 | 23000 nM | 20000 nM | CCCOc1ccc(/C=C/C(=O)Nc2ccc(NC(=O)/C=C/c3ccc(OCCC)cc3)c(C(=O)c3ccccc3)c2)cc1
11 | 9000 nM | 6500 nM | CCCOc1ccc(/C=C/C(=O)Nc2ccc(NC(=O)c3ccccc3)c(C(=O)c3ccccc3)c2)cc1
12 | 3400 nM | 2700 nM | CCCOc1ccc(/C=C/C(=O)Nc2ccc(NC(=O)c3cccc4ccccc34)c(C(=O)c3ccccc3)c2)cc1
13 | 2800 nM | 2000 nM | CCCOc1ccc(/C=C/C(=O)Nc2ccc(NC(=O)Cc3ccccc3Br)c(C(=O)c3ccccc3)c2)cc1
14 | 2500 nM | 1900 nM | CCCOc1ccc(/C=C/C(=O)Nc2ccc(NC(=O)Cc3ccccc3)c(C(=O)c3ccccc3)c2)cc1
15 | 120 nM | 100 nM | CCCOc1ccc(/C=C/C(=O)Nc2ccc(NC(=O)Cc3ccc(C(F)(F)F)cc3)c(C(=O)c3ccccc3)c2)cc1
16 | 30 nM | 29 nM | CCCCN(CCCC)CC(O)c1cc(Cl)cc2c1-c1ccc(Cl)cc1C2=Cc1ccc(Cl)cc1 (centres undefined) [LUMEFANTRINE]
